One assay deals with Escherichia coli. As to conditions: disc 6: NaCl 400 mg/mL (control).
The subject of a further assay is Haemophilus influenzae. As to conditions: disc 6: NaCl 400 mg/mL (control).
A further assay concerns Brucella suis. Format: cell-based. Conditions: disc 6: NaCl 400 mg/mL (control).
A further assay has as its system Klebsiela. As to conditions: disc 6: NaCl 400 mg/mL (control).
The test system of the next assay is Proteus vulgaris. As to conditions: disc 6: NaCl 400 mg/mL (control).
The subject of another assay is Neisseria meningitides. Conditions: disc 6: NaCl 400 mg/mL (control).
A further assay relates to Streptococcus pneumoniae. As to conditions: disc 6: NaCl 400 mg/mL (control).
The next assay concerns Streptococcus pyogenes. Conditions: disc 6: NaCl 400 mg/mL (control).
The subject of the next assay is Salmonella tifi. It counts as cell-based. Conditions: disc 6: NaCl 400 mg/mL (control).
The next assay concerns Neisseria gonorrhoeae. As to conditions: disc 6: NaCl 400 mg/mL (control).
In a further assay the test system is Shigella dysenteriae. It counts as cell-based. As to conditions: disc 6: NaCl 400 mg/mL (control).
Another assay concerns Streptococcus aureus. As to conditions: disc 6: NaCl 400 mg/mL (control).
Another assay relates to Shigella flexneri. As to conditions: disc 6: NaCl 400 mg/mL (control).
Another assay relates to Pseudomona aeruginosa. Conditions: disc 6: NaCl 400 mg/mL (control).
Another assay relates to Rauscher MuLV. The assay can be described thus: Rauscher Murine Virus (Rauscher MuLV) system in vivo, splenomegaly. As to conditions: rivabirin control, dose not given; in comparison with infected animals that received no treatment.

The results in this text go back to patent publication EP1790349A1.

Structures are written as SMILES.

`[Cl-].[Na+]` [NaCl]: the inhibitory halos in the assay with Escherichia coli, in the assay with Haemophilus influenzae, in the assay on Brucella suis, in the assay on Klebsiela, in the assay with Proteus vulgaris and in the assay with Neisseria meningitides was 6 mm each time. In addition, the inhibitory halos was found to be 6 mm with Streptococcus pneumoniae; 6 mm with Streptococcus pyogenes; 6 mm in the assay on Salmonella tifi; 14 mm with Neisseria gonorrhoeae; 6 mm in the assay on Shigella dysenteriae; 6 mm in the assay on Streptococcus aureus. Besides, the inhibitory halos with Shigella flexneri and with Pseudomona aeruginosa was 6 mm each time.
`NC(=O)c1ncn([C@@H]2O[C@H](CO)[C@@H](O)[C@H]2O)n1` [rivabirin]: the “reduction of the spleen size” value with Rauscher MuLV is listed as 74%.
